#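 Step 1: Grow cells in 96-well plates. Step 2: Expose to compound for 48 hours at 5 concentrations. Step 3: Interpolate endpoints linearly; if unreached, use highest concentration. GI50: concentration for 50% inhibition of growth.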 Active and inactive are the calls of the source. No stated cut-off is given here; in the data, active = GI50 up to about 1.1 µM and inactive = higher. Where a SMILES comes first, the peptide text is derived from it. [ ]: non-standard residue; d: D form. Phe(4-Cl) = N[CH](Cc1ccc(Cl)cc1)C(=O)O
# Experiments:
# Assay in all cases: DTP human tumour cell line panel, 48 h
# [1] = test system: RXF 631
# [2] = test system: LXFL 529
# [3] = test system: XF498
# [4] = test system: DMS-273
# [5] = test system: M19-MEL
# [6] = test system: DMS-114
# [7] = test system: DLD-1
# [8] = test system: HOP-18
# [9] = test system: SNB-78
Compound,GI50 [1],GI50 [2],GI50 [3],GI50 [4],GI50 [5],GI50 [6],GI50 [7],GI50 [8],GI50 [9]
CS(=O)(=O)NNS(=O)(=O)c1ccc(Cl)cc1,> 100 µM (inactive),> 100 µM (inactive),> 100 µM (inactive),> 100 µM (inactive),> 100 µM (inactive),> 100 µM (inactive),> 100 µM (inactive),–,–
Cc1ccc2c(c1)C(c1cccc3ccccc13)OC2=O (stereo not given),27.7 µM (inactive),> 100 µM (inactive),–,> 100 µM (inactive),> 100 µM (inactive),> 100 µM (inactive),75 µM (inactive),71.6 µM (inactive),–
O=c1c2ccc(Br)cc2nc(-c2ccccc2)n1NC1OC(CO)C(O)C(O)C1O (stereo not given),–,> 100 µM (inactive),> 100 µM (inactive),> 100 µM (inactive),> 100 µM (inactive),> 100 µM (inactive),–,> 100 µM (inactive),> 100 µM (inactive)
COC1=CC2(C=CC1=O)c1cc(OC)c(OC)cc1CCN2C(=O)c1ccccc1 (stereo not given),–,> 100 µM (inactive),–,> 100 µM (inactive),–,> 100 µM (inactive),> 100 µM (inactive),98.2 µM (inactive),> 100 µM (inactive)
COc1ccc2c(c1)NC1(O)c3ccccc3C(=O)C21O (stereo not given),> 100 µM (inactive),> 100 µM (inactive),25 µM (inactive),> 100 µM (inactive),> 100 µM (inactive),> 100 µM (inactive),> 100 µM (inactive),> 100 µM (inactive),> 100 µM (inactive)
COC(=O)CCC(NC(=S)N/N=C/c1ccco1)C(=O)OC (stereo not given),> 100 µM (inactive),> 100 µM (inactive),> 100 µM (inactive),> 100 µM (inactive),> 100 µM (inactive),> 100 µM (inactive),> 100 µM (inactive),> 100 µM (inactive),> 100 µM (inactive)
O=C[C@@H](CO)O[C@H](C=O)c1c[nH]c(=O)[nH]c1=O,–,–,24.7 µM (inactive),> 81.5 µM (inactive),104 µM (inactive),37.6 µM (inactive),75 µM (inactive),95.1 µM (inactive),133 µM (inactive)
CCN(CC)CCCC(C)Nc1c2ccc(Cl)cc2nc2ccc(OC)cc12 (stereo not given),1.77 µM (inactive),1.53 µM (inactive),1.73 µM (inactive),0.548 µM (active),1.76 µM (inactive),1.7 µM (inactive),1.64 µM (inactive),–,3.23 µM (inactive)
Cc1ccc2ccc3ccc(C)nc3c2n1 [NEOCUPROINE],–,0.679 µM (active),–,2.36 µM (inactive),3.44 µM (inactive),0.388 µM (active),0.656 µM (active),63.4 µM (inactive),> 100 µM (inactive)
CCCC(O)[C@@]1(CC)CC(C)C(O)(C2(C)C[C@H](C)[C@@H](C(CC)C(=O)C(C)[C@@H](O)[C@H](C)C3OC(O)(C(CC)C(=O)O)[C@@H](C)C(O)C3CC)O2)O1 (stereo not given in full),< 0.0333 µM (active),0.594 µM (active),1.19 µM (inactive),0.29 µM (active),0.643 µM (active),0.0279 µM (active),0.841 µM (active),8.59 µM (inactive),2.76 µM (inactive)
CC(=O)OCC(=O)[C@@]1(O)CC[C@H]2[C@@H]3CCC4=CC(=O)[C@H](C)C[C@]4(C)[C@H]3[C@@H](O)C[C@@]21C,–,–,> 100 µM (inactive),> 100 µM (inactive),> 100 µM (inactive),> 100 µM (inactive),> 100 µM (inactive),> 100 µM (inactive),9.77 µM (inactive)
COC(=N)c1csc(C2OC(CO)C(O)C2O)n1 (stereo not given),> 100 µM (inactive),> 100 µM (inactive),> 100 µM (inactive),> 100 µM (inactive),> 100 µM (inactive),> 100 µM (inactive),83.9 µM (inactive),> 100 µM (inactive),> 100 µM (inactive)
O=C1c2ccccc2C(Br)(Br)c2ccccc21,–,> 31.6 µM (inactive),29.3 µM (inactive),> 31.6 µM (inactive),> 31.6 µM (inactive),> 31.6 µM (inactive),> 31.6 µM (inactive),> 31.6 µM (inactive),> 100 µM (inactive)
CC(=O)Nc1ccc(C(=O)NN2C(=O)C(Cl)C2c2cc(Br)ccc2O)cc1 (stereo not given),–,14.4 µM (inactive),–,–,4.12 µM (inactive),–,4.74 µM (inactive),4.41 µM (inactive),–
COC(=O)C1(F)C(=O)NC(=O)NC1OC (stereo not given),–,–,67.1 µM (inactive),21.2 µM (inactive),18.7 µM (inactive),73.3 µM (inactive),5.92 µM (inactive),88.7 µM (inactive),> 100 µM (inactive)
CC(C)NC(=O)CCN(C(=O)O)S(=O)(=O)c1ccc(NC(=O)c2ccccc2)cc1,> 100 µM (inactive),> 93.8 µM (inactive),> 100 µM (inactive),> 42.7 µM (inactive),> 53.3 µM (inactive),> 39.4 µM (inactive),> 41.6 µM (inactive),> 100 µM (inactive),> 100 µM (inactive)
Cc1ccccc1/N=C/c1ccc(N(CCC#N)S(=O)(=O)c2ccccc2)cc1,> 100 µM (inactive),> 100 µM (inactive),> 100 µM (inactive),> 100 µM (inactive),> 100 µM (inactive),> 100 µM (inactive),> 100 µM (inactive),> 100 µM (inactive),> 100 µM (inactive)
CCc1cccc(CC)c1NC(=O)C(C#N)C1=C(Cl)C(=O)c2ccccc2C1=O (stereo not given),16.1 µM (inactive),16.1 µM (inactive),15.9 µM (inactive),17.9 µM (inactive),19.1 µM (inactive),22 µM (inactive),17.4 µM (inactive),15.5 µM (inactive),8.15 µM (inactive)
CCCCCC1C2C(=O)NC(=O)C1C(=O)NC2=O (stereo not given),–,> 100 µM (inactive),> 100 µM (inactive),> 100 µM (inactive),> 100 µM (inactive),> 100 µM (inactive),> 100 µM (inactive),–,–
CC1=NN(C(=O)c2ccc(Cl)cc2)C(=O)/C1=C/c1ccc(O)cc1,–,> 100 µM (inactive),> 100 µM (inactive),–,> 100 µM (inactive),> 100 µM (inactive),> 100 µM (inactive),–,–
COc1ccc2c(c1)[n+]([O-])c(C(=O)CC(=O)C(=O)Nc1cccc(Cl)c1C)c(C)[n+]2[O-],–,> 100 µM (inactive),–,> 100 µM (inactive),42.9 µM (inactive),–,–,> 100 µM (inactive),> 100 µM (inactive)
Cc1cc(C)nc(NS(=O)(=O)c2ccc(NC(=O)c3cccc4c(Nc5ccc(S(N)(=O)=O)cc5)c5ccccc5nc34)cc2)n1,> 100 µM (inactive),3.92 µM (inactive),39.2 µM (inactive),34.8 µM (inactive),13.5 µM (inactive),17.5 µM (inactive),> 93.3 µM (inactive),> 56 µM (inactive),9.79 µM (inactive)
CCOC(=O)c1c(-c2ccccc2)oc(-c2ccccc2)c1C(=O)OCC,–,34.6 µM (inactive),29.2 µM (inactive),> 100 µM (inactive),56.4 µM (inactive),> 100 µM (inactive),> 100 µM (inactive),> 100 µM (inactive),> 100 µM (inactive)
CC(O)C(NC(=O)C(Cc1ccccc1)NC(=O)C(NC(=O)C(CCCCN)NC(=O)C(Cc1c[nH]c2ccccc12)NC(=O)C(Cc1ccc(O)cc1)NC(=O)C(Cc1ccc(Cl)cc1)NC(=O)C(N)Cc1ccccc1)C(C)O)C(N)=O (stereo not given) (H-F[Phe(4-Cl)]YWKTFT-NH2; configuration not given here),19.4 µM (inactive),18.4 µM (inactive),14.2 µM (inactive),33 µM (inactive),21.5 µM (inactive),17.3 µM (inactive),20.3 µM (inactive),–,25.4 µM (inactive)
NC(=S)/N=C(/c1nc2ccc(Cl)cc2nc1O)C(O)c1ccccc1Cl (stereo not given),–,> 100 µM (inactive),> 100 µM (inactive),> 100 µM (inactive),–,> 100 µM (inactive),> 100 µM (inactive),33.8 µM (inactive),–

# Reference: ChEMBL document CHEMBL1201862, “PubChem BioAssay data set” (2004)
